Each structure is given as a SMILES string.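 The compound was tested at five concentrations on cells cultured in 96-well plates, with a 48-hour exposure period. GI50 marks 50% less growth. TGI: total growth inhibition.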

Assay in all cases: inhibition of tumour cell growth, NCI panel, 48 h
Experiment [1] deals with 786-0 renal.
Experiment [2] has as its system DMS 114 small cell lung.
For experiment [3], the system named is IGROV1 ovarian.
Experiment [4] deals with K-562 leukemia.
The test system of experiment [5] is LOX IMVI melanoma.
In experiment [6] the test system is NCI-H460 lung.
Experiment [7] relates to SF-268 CNS.
Experiment [8] concerns SNB-78 CNS.
For experiment [9], the system named is DU-145 prostate.
For experiment [10], the system named is HS 578T breast.

On to `COC1=C(Br)C(=O)c2nc(C)ccc2C1=O`, for which the TGI in experiment [1] was 27.2 µM; in [2] it was 31.6 µM; in experiment [3], 33.9 µM; in [4], greater than 27.8 µM; in [5] it was 24.3 µM; in [6], 31.7 µM. The figures for the TGI in experiment [7] and in experiment [8] were 33.1 µM and 41.6 µM, respectively.
For `N.N.NCCCCCCCCCN.O=C([O-])CC(=O)[O-].O=C([O-])CC(=O)[O-].[Pt+4].[Pt+4]`, the GI50 was 85.8 µM in [1]; greater than 100 µM in experiment [3]; greater than 100 µM in experiment [4]; greater than 100 µM in experiment [5]; 25.8 µM in experiment [6]; greater than 100 µM in [7]. Further, in experiment [8], the GI50 was greater than 100 µM. Also, the TGI in [1], in experiment [3], in [4], in [5], in experiment [6] and in experiment [7] was greater than 100 µM each time. The same compound registered a TGI in [8] greater than 100 µM.
`CCOC(=O)Cn1c(=O)n(C)c(=O)c2c1ncn2Cc1ccccc1`: the TGI in experiment [1], in experiment [2], in experiment [3], in experiment [4], in experiment [6] and in experiment [7] was greater than 100 µM each time. Moreover, the TGI in [8] is greater than 100 µM.
For `c1ccc(CSc2nc3ccccc3nc2-c2cccs2)cc1`, the TGI in experiment [1], in [2], in experiment [3], in experiment [4], in experiment [6] and in experiment [7] was greater than 100 µM each time. This compound showed a TGI in experiment [8] greater than 100 µM.
`CCOc1ccccc1NC(=O)C(=O)Cc1nc2ccccc2s1`: the TGI in experiment [1], in experiment [2], in experiment [3], in [6], in [7] and in experiment [8] was greater than 100 µM throughout.
Regarding `Cc1cccc(N=C2NC(=O)C(CC(=O)Nc3cccc(C)c3C)S2)c1` (stereo not drawn), the TGI in experiment [1], in experiment [2], in experiment [3], in experiment [5], in experiment [6] and in experiment [7] was greater than 100 µM throughout. The TGI in experiment [8] is greater than 100 µM.
On to `OCCNCCOc1ccc(/C(=C(/Cl)c2ccccc2)c2ccccc2)cc1`, for which the TGI in experiment [1] was 22.2 µM; in experiment [2], 29.6 µM; in experiment [3], 25.4 µM; in experiment [4] it was 11 µM; in experiment [5] it was 16.6 µM; in experiment [6], 18.2 µM. Moreover, the TGI in experiment [8] turned out to be 23.6 µM.
With `N#CC(C(=O)CCC(=O)Nc1cccc(C(F)(F)F)c1)c1ccc(Cl)cc1` (stereo not drawn), the TGI in [1], in experiment [3], in [4], in experiment [5], in experiment [6] and in [7] was greater than 100 µM each time. Also, in experiment [8], the TGI is greater than 100 µM.
Consider `CC(=O)OC1C2CCC1C1C2C2(Cl)C(Cl)=C(Cl)C1(Cl)C2(Cl)Cl` (stereo not drawn), for which the TGI in experiment [1] was 27.1 µM; in [2], 26.7 µM; in [3], 36 µM; in experiment [5], 29.1 µM; in experiment [6] it was 27.4 µM; in experiment [7], 32.6 µM. Also, the TGI in [8] was 34.8 µM.
As to `Nc1nc(N)c2cc(CNc3ccc(C(=O)NC(CC(=O)O)C(=O)O)c(Cl)c3)ccc2n1` (stereo not drawn), the GI50 is less than 0.01 µM in [1]; 223 µM in experiment [3]; 0.05 µM in [4]; 0.05 µM in experiment [5]; 0.05 µM in experiment [6]; 0.189 µM in experiment [7]. In addition, the TGI is greater than 500 µM in experiment [1]; 0.0214 µM in experiment [2]; greater than 500 µM in experiment [9]; greater than 500 µM in experiment [10]; greater than 500 µM in [3]; greater than 500 µM in [4]. Also, the TGI in [5] was greater than 500 µM; in experiment [6] it was 72.6 µM.
Turning to `O=S1(=O)OCCOS(=O)(=O)C1Cl`, the TGI in [1], in experiment [2], in experiment [3], in [4], in experiment [7] and in experiment [8] was greater than 100 µM throughout.
Turning to `O=c1c2ccccc2nc(-c2ccccc2)n1NC(=S)Nc1ccccc1`, the TGI in experiment [1] was greater than 100 µM; in experiment [2] it was 73.7 µM; in [3] it was greater than 100 µM; in experiment [4] it was greater than 100 µM; in [5], greater than 100 µM; in experiment [6] it was greater than 100 µM. For the same compound, the TGI in [7] was greater than 100 µM.
With `CN(C)CCSc1nccc(-c2cc3ccccc3s2)n1`, the TGI in experiment [1] is 63.4 µM; in experiment [2], 51.6 µM; in experiment [3] it was greater than 100 µM; in [5] it was 32.2 µM; in [6], 28 µM; in [8] it was 47.8 µM.

Values taken from PubChem BioAssay (NCI).
